Like-named read-outs stand apart in the source and are kept apart here.
Columns and labels:
KYSE-150 = assay: Cell proliferation, KYSE-150; format: cell-based; conditions: Homo sapiens, read-out: Cellular Proliferation IC50
Method: (§1) Cell lines used in these experiments were obtained from the following sources and were cultured according to conditions specified by the respective cell banks. […] The cell lines listed above were tested for mycoplasma and were negative. Cells were authenticated by STR method or vendor protocols. All 313 cell lines in the CRIPSR pooled screen were purchased from commercial vendors and were STR authenticated and mycoplasma negative. A broad panel of cancer cell lines was screened in the Eurofins Oncopanel. All cells in this panel were mycoplasma negative and STR verified.
Thus, 5 compounds representing 4 distinct pharmacophore series of SMYD2 inhibitors are now available for testing the dependence of cancer lines on SMYD2 activity. […] In stark contrast, however, no correlation is seen between the potency for BTF3 methylation inhibition and anti-proliferative activity among these compounds (Fig 3B).

SMYD2 [1] = target: T1, SMYD2 (Homo sapiens, UniProt Q9NRG4); assay: Intracellular BTF3 monomethylation (BTF3me1) western blot; format: cell-based; parameters: endogenous in cells; host or cells: 313 cancer cell lines; conditions: read-out: Intracellular Methylation IC50
Method: Cells were lysed in 1X RIPA Buffer containing 10% SDS and Halt™ Protease Inhibitor Cocktail (Thermo Fisher Scientific) and incubated on ice for 30 minutes before sonication (Amplitude 20%/10sec) twice. Lysates were spun at […] at 4°C for 10min and normalized for protein concentration by BCA assay (Thermo Fisher Scientific). […] Blots were imaged using the Odyssey Imaging System (LICOR Biosciences). […] BTF3me1 is a custom generated polyclonal antibody, affinity purified from serum of rabbits injected with adjuvant conjugated peptide corresponding to methylated K1 of BTF3 (K(Me)-[…]).
SMYD2 catalyzes the methylation of lysine residues on several proteins, including BTF3 [40].

SMYD2 [2] = target: T1, SMYD2; assay: SMYD2 biochemical methylation assay (3H-SAM, H3,1–29 peptide, flashplate); parameters: Full length FLAG-SMYD2 and C-terminally Avi-tagged full length SMYD2 (SMYD2-Avi) were cloned into pFastbac vectors; FLAG (N); His tag with TEV cleavage site (N, cleaved yes); made in house; host or cells: Sf9 insect cells (baculovirus)
Method: Full length FLAG-SMYD2 and C-terminally Avi-tagged full length SMYD2 (SMYD2-Avi) were cloned into pFastbac vectors containing an N-terminal His tag with TEV cleavage site. Virus production was performed using standard protocols and the proteins were coexpressed in either Sf9 (SMYD2) or Hi Five (SMYD2-Avi) cells. After harvest by centrifugation, cell pellets for both proteins were resuspended, sonicated, and then centrifuged to remove cell debris. Protein was purified using nickel affinity chromatography before and after TEV cleavage in a similar fashion as SMYD3. […] SMYD2-Avi was biotinylated using His-tagged BirA enzyme after dialysis into a low salt buffer and the BirA was removed with a final nickel affinity column. […] SMYD3 assays were performed as previously described using N-terminally GST-tagged MAP3K2 protein substrate. […] Reactions were conducted at room temperature with enzyme and inhibitor incubated for 30 minutes before initiating the reaction with substrates. Dose-response curves were tested in duplicate in each experiment. […] Quenched reactions were transferred to a streptavidin-coated flashplate (Perkin Elmer) for capture of the biotinylated peptide. After 2 h incubation at room temperature, the flashplate was washed once with 0.1% Tween-20 and read on a Perkin Elmer Topcount NXT plate reader. Substrate apparent KM values were determined by measuring the initial velocities (v0) in duplicate while varying one substrate at fixed concentration of the second substrate. […] Percent inhibition by compound (% inh) was calculated from Eq 3 %inh=(1-([…] the signal in the presence of compound and max and min are the signals for the DMSO and background controls respectively. […] Mechanism of inhibition was determined by measuring the inhibitor IC50 values while varying the concentration of one substrate at a fixed concentration of the second substrate equal to its KM value. The inhibition constant Ki was calculated from fitting the IC50 versus varied substrate concentration data using the Cheng-Prusoff equations for mixed-type and noncompetitive inhibition below. α is the coefficient accounting for differences in inhibitor affinity between binding enzyme forms after versus before substrate binding.

[3] = system: cell lines found to be sensitive to LLY-507; conditions: cited from earlier work
SMYD3 [4] = target: T2, SMYD3 (Homo sapiens, UniProt Q9H7B4); conditions: read-out: Kd for binding to SMYD3; cited from earlier work
T2 sequence (Q9H7B4 1-428): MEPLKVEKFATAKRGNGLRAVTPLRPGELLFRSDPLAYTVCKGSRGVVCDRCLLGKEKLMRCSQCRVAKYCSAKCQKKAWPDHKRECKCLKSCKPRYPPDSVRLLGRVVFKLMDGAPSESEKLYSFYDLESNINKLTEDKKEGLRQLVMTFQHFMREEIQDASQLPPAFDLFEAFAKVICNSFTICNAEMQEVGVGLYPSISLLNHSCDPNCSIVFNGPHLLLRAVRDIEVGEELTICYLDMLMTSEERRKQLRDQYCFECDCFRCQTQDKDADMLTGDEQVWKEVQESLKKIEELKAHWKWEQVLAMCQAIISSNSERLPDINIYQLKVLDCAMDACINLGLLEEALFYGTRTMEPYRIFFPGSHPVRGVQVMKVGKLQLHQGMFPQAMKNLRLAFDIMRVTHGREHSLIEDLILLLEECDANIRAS

several cell lines = conditions: cited from earlier work
SMYD3 [5] = target: T2, SMYD3; parameters: endogenous in cells; host or cells: 313 cancer cell lines; method as in Mitchell et al (2016); conditions: read-out: Intracellular Methylation IC50; MAP3K2 methylation; ref Mitchell et al (2016); cited from earlier work
SMYD3 [6] = target: T2, SMYD3; parameters: Protein purification of both isoforms of full length SMYD3 was performed as previously reported; made in house; method as in Mitchell et al (2016); conditions: read-out: Biochemical IC50, ref Mitchell et al (2016); cited from earlier work
[7] = system: panel of 240 cancer cell lines; assay: Proliferation in a broad panel of 240 cancer cell lines, 2D culture (Eurofins Panlabs Oncopanel); format: cell-based; conditions: for IC50: read-out: anti-proliferative IC50 across the panel of 240 cancer cell lines, 2D culture
Method: as §1

SMYD3 [8] = target: T2, SMYD3; assay: SMYD3 biochemical methylation assay (3H-SAM, GST-MAP3K2/MEKK2 substrate); parameters: Protein purification of both isoforms of full length SMYD3 was performed as previously reported; made in house; conditions: tested in duplicate; read-out: selectivity panel result, SMYD3 (off-target)
Method: SMYD3 assays were performed as previously described using N-terminally GST-tagged MAP3K2 protein substrate. […] Reactions were conducted at room temperature with enzyme and inhibitor incubated for 30 minutes before initiating the reaction with substrates. Dose-response curves were tested in duplicate in each experiment. […] Quenched reactions were transferred to a streptavidin-coated flashplate (Perkin Elmer) for capture of the biotinylated peptide. After 2 h incubation at room temperature, the flashplate was washed once with 0.1% Tween-20 and read on a Perkin Elmer Topcount NXT plate reader. Substrate apparent KM values were determined by measuring the initial velocities (v0) in duplicate while varying one substrate at fixed concentration of the second substrate.
Mechanism of inhibition was determined by measuring the inhibitor IC50 values while varying the concentration of one substrate at a fixed concentration of the second substrate equal to its KM value.

several enzymes = system: several enzymes; parameters: method as in http://www.chemicalprobes.org; conditions: ref http://www.chemicalprobes.org; cited from earlier work
SMYD2 [9] = target: T1, SMYD2; conditions: read-out: apparent SAM KM (reported); p53 peptide substrate, pH 9.0; 2 (supplemental references); cited from earlier work
[10] = SMYD2, 20 nM SAM, 60 nM H3,1–29 peptide, read-out: Biochemical IC50

T1 sequence (Q9NRG4 whole entry): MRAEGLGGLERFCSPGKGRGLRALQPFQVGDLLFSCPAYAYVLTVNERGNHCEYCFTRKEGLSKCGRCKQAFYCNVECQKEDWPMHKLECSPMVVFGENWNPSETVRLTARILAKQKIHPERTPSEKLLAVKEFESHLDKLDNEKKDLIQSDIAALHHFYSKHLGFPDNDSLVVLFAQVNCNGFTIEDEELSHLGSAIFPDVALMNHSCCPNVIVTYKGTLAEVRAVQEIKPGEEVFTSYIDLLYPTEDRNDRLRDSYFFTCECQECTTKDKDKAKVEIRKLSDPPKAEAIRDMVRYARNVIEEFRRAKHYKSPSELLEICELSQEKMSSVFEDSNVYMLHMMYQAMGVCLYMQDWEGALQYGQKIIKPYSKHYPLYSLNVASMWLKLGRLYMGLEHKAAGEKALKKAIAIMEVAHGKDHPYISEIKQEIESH

## O=C1COc2c(CCNCCN(C(=O)CCNCCc3ccc(Cl)c(Cl)c3)C3CCCCC3)ccc(O)c2N1 [AZ505, reference compound]
KYSE-150
  IC50: 12800 nM
SMYD2 [1]
  IC50: 13900 nM
SMYD2 [2]; [10]
  IC50: 51 nM

## CCN(C(=O)CO)[C@H]1CN(/C(=N\C#N)Nc2cccc(OC(F)F)c2)N=C1c1ccc(Cl)c(Cl)c1 [BAY-598]
[3]; cell lines found to be sensitive to LLY-507
  impact on cell proliferation or induction of apoptosis: little impact
[3]; ref Eggert et al (2016), read-out: Cellular Proliferation IC50
  IC50: > 20000 nM

## NC(=O)C1CCN(CC(=O)Nc2ccc(Br)cc2)CC1 [BCI-121]
SMYD3 [4]
  Kd: 11800 nM
Several cell lines; at 100 µM
  inhibition of proliferation of several cell lines: 20–30%
Several cell lines; ref Peserico et al (2015), read-out: Cellular Proliferation IC50
  IC50: > 100000 nM

## O=C1Cc2cc(C(=O)NC3CC4CCC(C3)N4S(=O)(=O)CC3CCN(CCCC(F)(F)F)CC3)c(Cl)cc2N1 (stereo not shown) [EPZ031686]
SMYD3 [5]
  IC50: 36 nM
SMYD3 [6]
  IC50: 3 nM

## O=C(NC1CN(Cc2cnn(Cc3ccccc3)c2)C1)c1cn(C2CC2)nn1 [EPZ032597]
KYSE-150
  IC50: > 40000 nM
[7]; cell lines with lower IC50 in the initial screen
  growth inhibition on repeat testing of hematologic cancer cell lines: < 50%
[7]
  IC50: > 10000 nM
SMYD2 [1]
  IC50: 31 nM
SMYD3 [8]
  IC50: > 10000 nM
SMYD2 [2]; 1 nM enzyme, 20 nM SAM, varied H3,1–29
  mechanism of inhibition with respect to peptide substrate: noncompetitive
SMYD2 [2]; IC50 at 20 nM SAM, 1 nM SMYD2, 60 nM H3,1-29, 20 nM SAM
  IC50: 21 ± 2 nM
SMYD2 [2]; IC50 at 200 nM SAM, 1 nM SMYD2, 60 nM H3,1-29, 200 nM SAM
  IC50: 25 ± 5 nM
SMYD2 [2]; [10]
  IC50: 16 nM
SMYD2 [2]; varied H3,1–29 peptide, Eq 6, read-out: Ki (noncompetitive versus peptide)
  Ki: 21.5 ± 1.5 nM

## Cc1cn(CCN2CCN(c3ccccc3-c3cc(C#N)cc(C(=O)NCCCN4CCCC4)c3)CC2)c2ccccc12 [LLY-507, reference compound]
KYSE-150
  IC50: 1800 nM
[7]
  IC50: 1000 to 5000 nM
Several enzymes
  inhibition of several enzymes (off-target potency): < 1000 nM

## C[S+](CC[C@H](N)C(=O)[O-])C[C@H]1O[C@@H](n2cnc3c(N)ncnc32)[C@H](O)[C@@H]1O (stereo partly drawn) [SAM, S-(5’adenosyl)-L-methionine]
SMYD2 [9]
  Km: 0.03 to 0.06 µM
SMYD2 [2]; 1 nM SMYD2, 60 nM H3,1–29, Eq 2, upper limit for the true KM, read-out: apparent KM for SAM
  Km: 0.00034 ± 7e-05 µM

Source: publication PMC5983452 (PLoS ONE, 2018)
